Assay results published in US20090023753A1, “1,3-Thiazole-5-Carboxamides Useful as Cancer Chemotherapeutic Agents” (Bayer HealthCare AG, priority 2005, published 2009).

How the values were obtained:
[1] = target: T1, Flk-1 (murine VEGFR-2) kinase domain (Mus musculus, UniProt P35918); experiment: Flk-1 (murine VEGFR-2) Biochemical Assay (TR-FRET); details: 10 μM ATP, 7 nM Flk-1 (kinase domain)
T1 construct: 7 nM Flk-1 (kinase domain)

[2] = test system: phospho-ERK in MDA-MB-231 cells; experiment: Phospho-ERK Cytoblot Assay with MDA-MB 231 cells; type: cell-based; details: Homo sapiens, 1 hour compound incubation, phospho-p44/42 MAP kinase (Thr202/Tyr204)
Description: The utility of the compounds of the present invention can also be illustrated, for example, by their activity in the phosph-ERK Assay described below. Growth-factor induction of the RAS/MEK/ERK signaling pathway leads to the induction of phosphorylation of a number of proteins including phospho-ERK (See C. J. Marshall, MAP kinase kinase kinase, MAP kinase kinase and MAP kinase, Current Opinions in Genetic Development, 1994, 4: p. 82-89). The importance of this pathway in cancer biology has been recognized in the art. Activation of the RAS signaling pathway is an important mechanism by which cancer develops (R. Herrera, et al, Unraveling the complexities of the Raf/MAP kinase pathway for pharmacological intervention, Trends Mol. Med., 2002, 8: p. S27-31). Mutational activation of RAS or downstream effectors as well as growth factor induction of this pathway leads to increased tumor cell proliferation and survival (A. A. Adjei, Blocking oncogenic RAS signaling for cancer therapy, J. Natl. Cancer Inst., 2001, 93(14): p. 1062-1074; J Schlessinger, Cell signaling by receptor tyrosine kinases, Cell, 2000, 103: p. 211-225). Phospho-ERK Cytoblot Assay Protocol with MDA-MB 231 Cells MDA-MB-231 cells in log phase were plated at 25,000 cells/well in 96-well opaque plates (Falcon, USA Cat # 353296) in 100 μL RPMI medium containing 10% (w/v) FBS, and incubated overnight at 37° C. in 5% CO2 incubator. The following day, the growth medium was removed from the plate by aspiration and replaced with RPMI medium containing 0.1% BSA and example compounds diluted to generate final concentrations of 0.0, 0.001, 0.003, 0.01, 0.03, 0.1, 0.3, 1 and 3 μM. Cells were incubated with compound for 1 hour at 37° C. in a 5% CO2 incubator. The media was then removed from the plate by aspiration and the cells were washed once with 180 μL/well cold Tris Buffered Saline (TBS). After removal of the wash buffer, the cells were fixed by adding 180 μL of cold 3.7% (v/v) formaldehyde in TBS to each well for 1 hour at 4° C. After removal of the formaldehyde, the cells were treated with the addition of 60 μL of −20° C. methanol to each well for 5 minutes at 4° C. The methanol was removed and the cells were washed with 180 μL/well of 5% (w/v) BSA in TBS. To block non-specific antibody binding sites, each well was treated with 180 μL/well 5% BSA (w/v) in TBS for thirty minutes at room temperature. After removal of the blocking buffer, 50 μL of an anti-phospho-p44/42 MAP kinase (Thr202/Tyr204) rabbit polyclonal antibody (Cell Signaling, USA Cat # 9101) was added to each well at a dilution of 1:1000 in 5% (w/v) BSA in TBS, and the plate was incubated at 4° C. overnight. Plates were then washed three times with 300 μL/well TBS at room temperature. The plates were then incubated with 50 μL of Horseradish peroxidase (HRP)-conjugated goat-anti-rabbit antibody (Amersham, USA Cat. # NA934V) at a dilution of 1:1000 in 5% BSA-TBS at room temperature for 1 hr. After washing the plate three times with 300 μL/well TBS, 60 μL of Enhanced Chemiluminescence (ECL) reagent (Amersham, USA Cat# RPN2209) was added to each well and incubated at room temperature for five minutes. The plate was then read on a Perkin Elmer Victor 5 Multilabel Counter (#1420-0421). […] The utility of the compounds of the present invention can also be illustrated, for example, by their activity in the flk-1 (murine VEGFR2) Assay described below. The VEGF-VEGFR2 signaling pathway has been extensively characterized as an important regulator of angiogenesis and tumor angiogeneisis (See G. Yancopoulos et al, Vascular-specific growth factors and blood vessel formation, Nature, 2000, 407: p. 242-248; D. Shweiki et al, Induction of vascular endothelial growth factor expression by hypoxia and by glucose deficiency in multi cell spheroids: Implications for tumor angiogenesis, Proc. Natl. Acad. Sci, 1995, 92: p. 768-772). Inhibition of tumor cell growth by blocking this pathway has been well documented in the art. […]

[3] = test system: P-AKT/PKB in H209 small cell lung carcinoma cells; experiment: P-AKT/PKB Cytoblot Assay with H209 cells (SCF-stimulated); type: cell-based; details: Homo sapiens, NCI-H209, 1 hour compound incubation, SCF 25 ng/mL for 5 minutes, p-(S473) AKT
Description: The utility of the compounds of the present invention can be illustrated, for example, by their activity in the P-AKT/PKB Cytoblot Assay described below. The involvement of the P-AKT/PKB[PI3K/AKt] pathway as a target for cancer chemotherapy has been recognized in the art. For example, see F. Chang et al, Involvement of PI3K/Akt pathway in cell cycle progression, apoptosis, and neoplastic transformation: a target for cancer chemotherapy, Leukemia, 2003, 17: p. 590-603; K. A. West et al, Activation of the PI3K/Akt pathway and chemotherapeutic resistance, Drug Resistance Updates, 2002, 5: p. 234-248; and P. Sen et al, Involvement of the Akt/PKB signaling pathway with disease processes, Molecular and Cellular Biochemistry, 2003, 253: p. 241-246.
P-AKT/PKB Cytoblot Assay Protocol with H209 Cells
H209 small cell lung carcinoma cells in log phase were plated at 50,000 cells/well in 96-well poly-lysine coated, clear bottom/black-sided plates (Becton-Dickinson, USA Cat # 354640) in 100 Ill RPMI medium containing 0.1% (w/v) BSA, and incubated overnight at 37° C. in 5% CO2 incubator. The following day, compounds (10 mM stock solutions in DMSO) were added to the plates to generate final concentrations of 0.0, 0.01, 0.03, 0.1, 0.3, 1.0, 3.0 and 10 μM for IC50 determinations and incubated for 1 hour at 37° C. Cells were then left untreated or stimulated with Stem Cell Factor (SCF: Biosource Cat # PHC2116) at a final concentration of 25 ng/mL for 5 minutes at 37° C. in 5% CO2 incubator. The media was then removed using a vacuum manifold and the cells were washed once with Tris Buffered Saline (TBS). Cells were then fixed by adding 200 μl of cold 3.7% (v/v) formaldehyde in TBS to each well for 15 minutes at 4° C. After removal of the formaldehyde, the cells were treated with the addition of 50 μl of methanol (at −20° C.) to each well for 5 minutes. After removal of the methanol, 200 μl of 1% (w/v) BSA in TBS was added to each well to block non-specific antibody binding sites and the plate was incubated at room temperature for 30 minutes.
After removal of the blocking buffer, 50 μl of p-(S473) AKT rabbit polyclonal antibody (Cell Signaling, USA Cat # 9277S) was added at a dilution of 1:250 in 0.1% (w/v) BSA in TBS, and the plate was incubated at room temperature for 1 hour. Plates were then washed 3 times with cold TBS containing 0.05% (v/v) Tween 20 (TBS-T) and 100 μl of Horseradish peroxidase (HRP)-conjugated goat-anti-rabbit antibody (Amersham, USA Cat # NA934V) at a dilution of 1:250 in TBS-T was added and the plate was incubated at room temperature for 1 h. After washing with ice-cold TBS-T four times, 100 μl of Enhanced Chemiluminescence (ECL) reagent (Amersham, USA Cat# RPN2209) was added to each well and mixed on a mini-orbital shaker for 1 min. The plate was then read on a Perkin Elmer Victor 5 Multilabel Counter (#1420-0421).

T1 sequence (P35918 832-1160 limits assumed): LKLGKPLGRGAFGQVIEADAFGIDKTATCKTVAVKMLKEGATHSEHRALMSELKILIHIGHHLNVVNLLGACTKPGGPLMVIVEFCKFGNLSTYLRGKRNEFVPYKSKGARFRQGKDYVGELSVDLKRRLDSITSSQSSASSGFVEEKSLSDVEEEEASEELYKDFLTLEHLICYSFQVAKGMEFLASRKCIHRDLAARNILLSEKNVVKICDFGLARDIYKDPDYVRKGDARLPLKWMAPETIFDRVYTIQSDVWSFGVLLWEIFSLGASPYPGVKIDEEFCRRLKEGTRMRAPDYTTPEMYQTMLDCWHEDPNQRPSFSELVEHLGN

IC50 [1]	IC50 [2]	IC50 [3]	Compound
< 500 nM	< 3000 nM	< 500 nM	CNC(=O)Nc1cc(CNc2ncsc2C(=O)Nc2ccc3c(c2)OC(F)(F)O3)ccn1 [Example 18, N-(2,2-difluoro-1,3-benzodioxol-5-yl)-4-{[(2-{[(methylamino)carbonyl]amino}pyridin-4-yl)methyl]amino}-1,3-thiazole-5-carboxamide]
< 500 nM	< 3000 nM	< 500 nM	COCCOCC(=O)Nc1cc(CNc2ncsc2C(=O)Nc2ccc3c(c2)OC(F)(F)C(F)(F)O3)ccn1 [Example 9, 4-{[(2-{[(2-methoxyethoxy)acetyl]amino}pyridin-4-yl)methyl]amino}-N-(2,2,3,3-tetrafluoro-2,3-dihydro-1,4-benzodioxin-6-yl)-1,3-thiazole-5-carboxamide]
< 500 nM	< 3000 nM	< 500 nM	CC(=O)OCC(=O)Nc1cc(CNc2ncsc2C(=O)Nc2ccc3c(c2)OC(F)(F)O3)ccn1 [Example 13, 2-[(4-{[(5-{[(2,2-difluoro-1,3-benzodioxol-5-yl)amino]carbonyl}-1,3-thiazol-4-yl)amino]methyl}pyridin-2-yl)amino]-2-oxoethyl acetate]
< 500 nM	< 3000 nM	< 500 nM	CNC(=O)c1cc(CNc2ncsc2C(=O)Nc2ccc3c(c2)OC(F)(F)C(F)(F)O3)ccn1 [Example 2, N-methyl-4-{[(5-{[(2,2,3,3-tetrafluoro-2,3-dihydro-1,4-benzodioxin-6-yl)amino]carbonyl}-1,3-thiazol-4-yl)amino]methyl}pyridine-2-carboxamide]
< 500 nM	< 3000 nM	< 500 nM	CC(=O)Nc1cc(CNc2ncsc2C(=O)Nc2ccc3c(c2)OC(F)(F)O3)ccn1 [Example 10, 4-([{2-(acetylamino)pyridin-4-yl]methyl}amino)-N-(2,2-difluoro-1,3-benzodioxol-5-yl)-1,3-thiazole-5-carboxamide]
< 500 nM	< 3000 nM	< 500 nM	COCC(=O)Nc1cc(CNc2ncsc2C(=O)Nc2ccc3c(c2)OC(F)(F)O3)ccn1 [Example 7, N-(2,2-difluoro-1,3-benzodioxol-5-yl)-4-[([2-[(methoxyacetyl)amino]pyridin-4-yl]methyl)amino]-1,3-thiazole-5-carboxamide]
